Measured values reported in patent US8604024B2, “Compounds for the reduction of beta-amyloid production” (Bristol-Myers Squibb Company, priority 2011, dated 2013).
pIC50: −log10 of the molar value. Counter-ions that a name gives are not always drawn.

system: Aβ1-42 production in H4 cells stably transfected with APP751 containing the Swedish mutation; assay: Cellular assay for inhibition of Aβ1-42 production (H4 APP751 SWE clone 8.20); type: cell-based; conditions: 19 h, H4 APP751 SWE clone 8.20 cells, 19 h incubation; read-out: Aβ42 cellular IC50
Protocol: Cellular Assays for Inhibition of Aβ1-40 and Aβ1-42 Production
H4 cells stably transfected with APP751 containing the Swedish mutation (H4 APP751 SWE clone 8.20, developed at BMS) were maintained in log phase through twice weekly passage at a 1:20 split. […] Following incubation for 19 h in 5% CO2 at 37° C., plates were briefly centrifuged (1000 rpm, 5 min). A 10 μl aliquot from each well was transferred to a second assay plate (Costar 3709) for Aβ40 measurements. Antibody cocktails were freshly prepared by dilution into 40 mM Tris-HCl (pH 7.4) with 0.2% BSA and added to assay plates. For Aβ42 measurements, antibodies specific for the Aβ42 neoepitope (565, developed at BMS; conjugated to the Wallac reagent (Perkin Elmer)) and the N-terminal sequence of Aβ peptide (26D6, developed at SIBIA; conjugated to APC (Perkin Elmer)) were mixed and 20 μl of the mixture was added to each well of the incubated cell plate yielding a final concentration of 0.8 ng/well 565 and 75 ng/well 26D6. For the Aβ40 measurements, antibodies specific for the Aβ40 neoepitope (TSD, developed at BMS; conjugated to the Wallac reagent (Perkin Elmer)) and 26D6 as described above were mixed and 20 μl of the mixture was added to the 10 μl aliquots which had been removed previously from the cell plate yielding a final concentration of 1.6 ng/well TSD and 17.5 ng/well 26D6. Assay plates containing antibodies were sealed with aluminum foil and incubated overnight at 4° C. Signal was determined using a Viewlux counter (Perkin Elmer) and IC50 values determined using curve fitting in CurveMaster (Excel Fit based).

| SMILES | pIC50 |
| --- | --- |
| C[C@]12N=C(N)SC[C@H]1CCc1ccc(NC(=O)c3ccc(F)cn3)cc12 (relative stereo) [Example 9, rel-N-((4aS,10bS)-2-amino-10b-methyl-4a,5,6,10b-tetrahydro-4H-naphtho[1,2-d][1,3]thiazin-9-yl)-5-fluoropicolinamide, 2,2,2-trifluoroacetate] | 5.68 |
| NC1=N[C@@H]2c3cc(-c4cncnc4)ccc3CCC[C@@H]2CS1 (relative stereo) [Example 1, rel-(4aS,11bS)-10-Pyrimidin-5-yl-4,4a,5,6,7,11b-hexahydro-3-thia-1-aza-dibenzo[a,c]cyclohepten-2-ylamine, bis(2,2,2-trifluoroacetate)] | 5.28 |
| C[C@]12N=C(N)SC[C@H]1CCOc1ccc(Nc3ncccc3C#N)cc12 (relative stereo) [Example 39, rel-2-(((4aS,11bS)-2-Amino-11b-methyl-4a,5,6,11b-tetrahydro-4H-benzo[2,3]oxepino[4,5-d][1,3]thiazin-10-yl)amino)nicotinonitrile, bis(2,2,2-trifluoroacetate)] | < 4.52 |
| COc1ccc(-c2cn(-c3ccc4c(c3)[C@@]3(C)N=C(N)SC[C@H]3CCO4)cn2)cc1 (relative stereo) [Example 31, rel-(4aS,11bS)-10-(4-(4-Methoxyphenyl)-1H-imidazol-1-yl)-11b-methyl-4a,5,6,11b-tetrahydro-4H-benzo[2,3]oxepino[4,5-d][1,3]thiazin-2-amine, bis(2,2,2-trifluoroacetate)] | 5.03 |
| C[C@]12N=C(N)SC[C@H]1CCCc1ccc(-c3cncnc3)cc12 (relative stereo) [Example 2, rel-(4aS,11bS)-11b-Methyl-10-pyrimidin-5-yl-4,4a,5,6,7,11b-hexahydro-3-thia-1-aza-dibenzo[a,c]cyclohepten-2-ylamine, bis(2,2,2-trifluoroacetate)] | 5.47 |
| C[C@]12N=C(N)SC[C@H]1CCCc1ccc(-c3cncc(Cl)c3)cc12 (relative stereo) [Example 13, rel-(4aS,11bS)-10-(5-Chloropyridin-3-yl)-11b-methyl-4,4a,5,6,7,11b-hexahydrobenzo[6,7]cyclohepta[1,2-d][1,3]thiazin-2-amine, bis(2,2,2-trifluoroacetate)] | 5.51 |
| CC#Cc1cncc(-c2ccc3c(c2)[C@@]2(C)N=C(N)SC[C@H]2CCO3)c1 (relative stereo) [Example 22, rel-(4aS,11bS)-11b-methyl-10-(5-(prop-1-yn-1-yl)pyridin-3-yl)-4a,5,6,11b-tetrahydro-4H-benzo[2,3]oxepino[4,5-d][1,3]thiazin-2-amine, bis(2,2,2-trifluoroacetate)] | 6.02 |
| C[C@]12N=C(N)SC[C@H]1CCCc1ccc(-c3cncc(F)c3)cc12 (relative stereo) [Example 14, rel-(4aS,11bS)-10-(5-fluoropyridin-3-yl)-11b-methyl-4,4a,5,6,7,11b-hexahydrobenzo[6,7]cyclohepta[1,2-d][1,3]thiazin-2-amine, bis(2,2,2-trifluoroacetate)] | 5.68 |
| COc1cccnc1Nc1ccc2c(c1)[C@@]1(C)N=C(N)SC[C@H]1CCO2 (relative stereo) [Example 38, rel-(4aS,11bS)—N10-(3-Methoxypyridin-2-yl)-11b-methyl-4a,5,6,11b-tetrahydro-4H-benzo[2,3]oxepino[4,5-d][1,3]thiazine-2,10-diamine, bis(2,2,2-trifluoroacetate)] | 5.89 |
| Cn1cc(-c2ccc3c(c2)[C@@]2(C)N=C(N)SC[C@H]2CCO3)cn1 (relative stereo) [Example 23, rel-(4aS,11bS)-11b-Methyl-10-(1-methyl-1H-pyrazol-4-yl)-4a,5,6,11b-tetrahydro-4H-benzo[2,3]oxepino[4,5-d][1,3]thiazin-2-amine, bis(2,2,2-trifluoroacetate)] | 5.29 |
| NC1=N[C@@H]2c3cc(-c4cncnc4)cc(F)c3OCC[C@@H]2CS1 (relative stereo) [Example 4, rel-(4aS,11bS)-8-fluoro-10-pyrimidin-5-yl-4a,5,6,11b-tetrahydro-4H-7-oxa-3-thia-1-aza-dibenzo[a,c]cyclohepten-2-ylamine] | < 4.52 |
| C[C@]12N=C(N)SC[C@H]1CCOc1ccc(NC(=O)c3ccc(Cl)cn3)cc12 (relative stereo) [Example 33, rel-N-((4aS,11bS)-2-amino-11b-methyl-4a,5,6,11b-tetrahydro-4H-benzo[2,3]oxepino[4,5-d][1,3]thiazin-10-yl)-5-chloropicolinamide, 2,2,2-trifluoroacetate salt] | 7.47 |
| CC#Cc1cncc(-c2ccc3c(c2)[C@@]2(C)N=C(N)SC[C@H]2CC3)c1 (relative stereo) [Example 21, rel-(4aS,10bS)-10b-methyl-9-(5-(prop-1-yn-1-yl)pyridin-3-yl)-4,5,6,10b-tetrahydro-4H-naphtho[1,2-d][1,3]thiazin-2-amine, bis(2,2,2-trifluoroacetate)] | 5.74 |
| C[C@]12N=C(N)SC[C@H]1CCc1ccc(-c3cn[nH]c3)cc12 (relative stereo) [Example 19, rel-(4aS,10bS)-10b-Methyl-9-(1H-pyrazol-4-yl)-4a,5,6,10b-tetrahydro-4H-naphtho[1,2-d][1,3]thiazin-2-amine, bis(2,2,2-trifluoroacetate)] | 5.10 |
| C[C@]12N=C(N)SC[C@H]1CCCc1cc(F)c(-c3cncnc3)cc12 (relative stereo) [Example 47, rel-(4aS,11bS)-9-fluoro-11b-methyl-10-(pyrimidin-5-yl)-4,4a,5,6,7,11b-hexahydrobenzo[6,7]cyclohepta[1,2-d][1,3]thiazin-2-amine, bis(2,2,2-trifluoroacetate)] | 5.57 |

Now from value to compound:

| pIC50 | SMILES |
| --- | --- |
| 5.17 | C[C@@]12N=C(N)SC[C@@H]1CCCc1ccc(NC(=O)c3ccc(C#N)cn3)cc12 [Example 44a, N-((4aR,11bR)-2-Amino-11b-methyl-4,4a,5,6,7,11b-hexahydrobenzo[6,7]cyclohepta[1,2-d][1,3]thiazin-10-yl)-5-cyanopicolinamide] |
| 5.49 | Cc1ncc(-c2ccc3c(c2)[C@@]2(C)N=C(N)SC[C@H]2CCO3)s1 [Example 26b, (4aS,11bS)-11b-Methyl-10-(2-methylthiazol-5-yl)-4a,5,6,11b-tetrahydro-4H-benzo[2,3]oxepino[4,5-d][1,3]thiazin-2-amine] |
| 5.46 | C[C@@]12N=C(N)SC[C@@H]1CCCc1ccc(NC(=O)c3ccc(OC(F)F)cn3)cc12 [Example 46b, N-((4aR,11bR)-2-Amino-11b-methyl-4,4a,5,6,7,11b-hexahydrobenzo[6,7]cyclohepta[1,2-d][1,3]thiazin-10-yl)-5-(difluoromethoxy)picolinamide] |
| 8.16 | C[C@]12N=C(N)SC[C@H]1CCOc1ccc(NC(=O)c3ncc(Cl)cc3Cl)cc12 [Example 34a, N-((4aS,11bS)-2-Amino-11b-methyl-4a,5,6,11b-tetrahydro-4H-benzo[2,3]oxepino[4,5-d][1,3]thiazin-10-yl)-3,5-dichloropicolinamide] |
| 5.92 | C[C@]12N=C(N)SC[C@H]1CCc1ccc(NC(=O)c3ccc(Cl)cn3)cc12 [Example 7b, N-((4aS,10bS)-2-Amino-10b-methyl-4a,5,6,10b-tetrahydro-4H-naphtho[1,2-d][1,3]thiazin-9-yl)-5-chloropicolinamide] |
| 5.72 | NC1=N[C@@H]2c3cc(-c4cncnc4)ccc3CCC[C@@H]2CS1 [Example 1a, (4aS,11bS)-10-Pyrimidin-5-yl-4,4a,5,6,7,11b-hexahydro-3-thia-1-aza-dibenzo[a,c]cyclohepten-2-ylamine] |
| 7.68 | C[C@]12N=C(N)SC[C@H]1CCCc1ccc(NC(=O)c3ccc(C#N)cn3)cc12 [Example 44b, N-((4aS,11bS)-2-Amino-11b-methyl-4,4a,5,6,7,11b-hexahydrobenzo[6,7]cyclohepta[1,2-d][1,3]thiazin-10-yl)-5-cyanopicolinamide] |
| 5.11 | C[C@@]12N=C(N)SC[C@@H]1CCOc1ccc(NC(=O)c3ccc(Cl)cn3)cc12 [Example 33b, N-((4aR,11bR)-2-amino-11b-methyl-4a,5,6,11b-tetrahydro-4H-benzo[2,3]oxepino[4,5-d][1,3]thiazin-10-yl)-5-chloropicolinamide] |
| 8.14 | C[C@]12N=C(N)SC[C@H]1CCCc1ccc(NC(=O)c3ncc(Cl)cc3Cl)cc12 [Example 45a, N-((4aS,11bS)-2-Amino-11b-methyl-4,4a,5,6,7,11b-hexahydrobenzo[6,7]cyclohepta[1,2-d][1,3]thiazin-10-yl)-3,5-dichloropicolinamide] |

same assay, conditions: H4 APP751 SWE clone 8.20 cells, 19 h incubation; read-out: Aβ42 cellular IC50

| pIC50 | SMILES |
| --- | --- |
| 5.29 | C[C@@]12N=C(N)SC[C@@H]1CCOc1ccc(NC(=O)c3ccc(C#N)cn3)cc12 (stereo in doubt) [Example 35a, N-((4aR,11bR)-2-amino-11b-methyl-4a,5,6,11b-tetrahydro-4H-benzo[2,3]oxepino[4,5-d][1,3]thiazin-10-yl)-5-cyanopicolinamide] |
| 8.21 | C[C@]12N=C(N)SC[C@H]1CCOc1ccc(NC(=O)c3ccc(C#N)cn3)cc12 [Example 35b, N-((4aS,11bS)-2-amino-11b-methyl-4a,5,6,11b-tetrahydro-4H-benzo[2,3]oxepino[4,5-d][1,3]thiazin-10-yl)-5-cyanopicolinamide] |
